Laboratory results reported in US20190083398A1 (ZheJiang Chinese Medical University, priority 2016, published 2019).

Assay: Solubility (descriptive)
Assay type: physicochemical
Settings: 0.9% NaCl release medium
Text: The samples at each sampling point are filtered through a 0.45 μm microporous film and injected for analysis.

CC(C)[C@@H](C)/C=C/[C@@H](C)[C@H]1CC[C@H]2C3=CC=C4C[C@@H](O)CC[C@]4(C)[C@H]3CC[C@]12C [ergosterol]
solubility in the release medium: very low
